Test results taken from US11780849B2, “Imino sulfanone inhibitors of ENPP1” (Volastra Therapeutics, Inc., priority 2020, dated 2023).
Like-named read-outs stand apart in the source and are kept apart here.

Key:
ENPP-1 ECD [1] = molecular target: T1, ENPP-1 ECD (Homo sapiens (Human), UniProt P22413); test: Assay 1: inhibition of ENPP1 hydrolysis of 2′,3′-cGAMP (AMP-Glo, […] enzyme)
Experimental: Assay 1: Test compounds were plated in a 3× dilution scheme in a 384 well plate. […] AMP Detection solution (100 μL) was added to each well, the plate centrifuged and incubated for 60 min.

ENPP-1 ECD [2] = molecular target: T1, ENPP-1 ECD; test: Assay 2: inhibition of ENPP1 hydrolysis of 2′,3′-cGAMP (AMP-Glo, […] enzyme)
Experimental: Assay 2: Compared to the conditions in Assay 1, this assay has a larger dynamic range and ensures the system is under steady-state conditions by reducing the enzyme concentration in the assay.
Test compounds were plated in a 3× dilution scheme in a 384 well plate. […] AMP Detection solution (10 μL) was added to each well, the plate centrifuged and incubated for 60 min.

[3] = Assay 1 (IC50), ENPP1 hydrolysis of 2′,3′-cGAMP, AMP-Glo
[4] = Assay 1 (IC50), inhibition of ENPP1 hydrolysis of 2′,3′-cGAMP, no unit in Table 18 (Table 17 legend for this assay uses nM)
[5] = Assay 2 (KI), ENPP1 hydrolysis of 2′,3′-cGAMP, AMP-Glo, […] ENPP-1, 24 μM cGAMP
[6] = Assay 2 (KI), inhibition of ENPP1 hydrolysis of 2′,3′-cGAMP, no unit in Table 18 (Table 17 legend for this assay uses nM)
[7] = read-out: Assay 1 (IC50), ENPP1 hydrolysis of 2′,3′-cGAMP, AMP-Glo
[8] = read-out: Assay 2 (KI), ENPP1 hydrolysis of 2′,3′-cGAMP, AMP-Glo, […] ENPP-1, 24 μM cGAMP
[9] = read-out: Assay 2 (KI), inhibition of ENPP1 hydrolysis of 2′,3′-cGAMP, no unit in Table 18 (Table 17 legend for this assay uses nM)
[10] = read-out: Assay 1 (IC50), inhibition of ENPP1 hydrolysis of 2′,3′-cGAMP, no unit in Table 18 (Table 17 legend for this assay uses nM)

T1 sequence (P22413 98-925): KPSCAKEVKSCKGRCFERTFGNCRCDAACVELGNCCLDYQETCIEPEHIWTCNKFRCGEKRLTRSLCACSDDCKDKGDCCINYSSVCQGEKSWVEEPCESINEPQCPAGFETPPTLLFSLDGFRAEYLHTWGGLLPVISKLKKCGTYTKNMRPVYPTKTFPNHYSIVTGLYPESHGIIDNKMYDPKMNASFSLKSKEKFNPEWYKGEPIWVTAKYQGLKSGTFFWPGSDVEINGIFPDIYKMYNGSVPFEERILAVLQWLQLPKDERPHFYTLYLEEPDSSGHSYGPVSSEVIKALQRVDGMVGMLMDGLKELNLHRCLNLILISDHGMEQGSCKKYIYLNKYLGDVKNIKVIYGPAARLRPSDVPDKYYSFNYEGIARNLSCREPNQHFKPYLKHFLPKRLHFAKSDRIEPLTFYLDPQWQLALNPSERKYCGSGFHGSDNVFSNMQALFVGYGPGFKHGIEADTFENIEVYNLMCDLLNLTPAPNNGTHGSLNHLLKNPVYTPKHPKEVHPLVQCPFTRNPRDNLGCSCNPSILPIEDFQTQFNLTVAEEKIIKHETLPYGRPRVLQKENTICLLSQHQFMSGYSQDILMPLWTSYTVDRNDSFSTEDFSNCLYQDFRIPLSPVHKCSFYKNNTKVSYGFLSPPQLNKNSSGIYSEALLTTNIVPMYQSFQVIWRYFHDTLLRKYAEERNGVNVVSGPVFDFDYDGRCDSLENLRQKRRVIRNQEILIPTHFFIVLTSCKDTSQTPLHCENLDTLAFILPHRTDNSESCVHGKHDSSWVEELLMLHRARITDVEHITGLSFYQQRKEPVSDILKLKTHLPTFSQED

IC50 (ENPP-1 ECD [1]; [3]) [nM] | IC50 (ENPP-1 ECD [1]; [4]) [nM] | Ki (ENPP-1 ECD [2]; [5]) [nM] | Ki (ENPP-1 ECD [2]; [6]) [nM] | IC50 (ENPP-1 ECD [1]; [7]) [nM] | Ki (ENPP-1 ECD [2]; [8]) [nM] | Ki (ENPP-1 ECD [2]; [9]) [nM] | IC50 (ENPP-1 ECD [1]; [10]) [nM] | Compound
10 to 1000 | 160 | 3 to 300 | 36 |  |  |  |  | COc1cccc2c(Oc3ccc(S(C)(=N)=O)cc3)ccnc12 (centres unmarked) [Compound 118, imino({4-[(8-methoxyquinolin-4-yl)oxy]phenyl})methyl-λ^6-sulfanone]
10 to 1000 | 39 | 3 to 300 | 11 |  |  |  |  | COc1cc2nccc(Oc3ccc(S(C)(=N)=O)cc3)c2cc1Cl (centres unmarked) [Compound 126, {4-[(6-chloro-7-methoxyquinolin-4-yl)oxy]phenyl}(imino)methyl-λ^6-sulfanone]
10 to 1000 | 23 | < 3 | 2.8 |  |  |  |  | COc1ccc2c(Oc3ccc(S(C)(=N)=O)c(F)c3)ccnc2c1 (centres unmarked) [Compound 10, (2-fluoro-4-((7-methoxyquinolin-4-yl)oxy)phenyl)(imino)(methyl)-λ^6-sulfanone]
 |  |  |  | 10 to 1000 | 3 to 300 | 13 | 180 | COc1ccc2c(Oc3ccc([S@](C)(=N)=O)cc3)ccnc2c1 [Compound 80b]
 | 3200 | > 300 | 330 | > 1000 |  |  |  | COc1cc2nccc(Oc3ccc([S@](C)(=N)=O)cc3)c2cc1OC [Compound 1R, (R)-(4-((6,7-dimethoxyquinolin-4-yl)oxy)phenyl)(imino)(methyl)-λ^6-sulfanone]
10 to 1000 | 180 | 3 to 300 | 94 |  |  |  |  | COc1ccc2c(Oc3cccc(S(C)(=N)=O)c3)ccnc2c1 (centres unmarked) [Compound 117, imino({3-[(7-methoxyquinolin-4-yl)oxy]phenyl})methyl-λ^6-sulfanone]
 | 8100 |  |  |  |  |  |  | COc1ccc2nccc(Oc3ccc(S(C)(=N)=O)cc3)c2n1 (centres unmarked) [Compound 130, imino({4-[(6-methoxy-1,5-naphthyridin-4-yl)oxy]phenyl})methyl-λ^6-sulfanone]
 | 23000 |  |  | > 1000 |  |  |  | COc1cnc2c(Oc3ccc(S(C)(=N)=O)cc3)ccnc2c1 (centres unmarked) [Compound 76, imino(4-((7-methoxy-1,5-naphthyridin-4-yl)oxy)phenyl)(methyl)-λ^6-sulfanone]
10 to 1000 | 57 |  |  |  |  |  |  | COc1cc2nccc(Oc3ccc(S(C)(=N)=O)cc3)c2cn1 (centres unmarked) [Compound 77, imino(4-((7-methoxy-1,6-naphthyridin-4-yl)oxy)phenyl)(methyl)-λ^6-sulfanone]

The remaining lines, values behind:

Compound | IC50 (ENPP-1 ECD [1]; [3]) [nM] | IC50 (ENPP-1 ECD [1]; [4]) [nM] | Ki (ENPP-1 ECD [2]; [5]) [nM] | Ki (ENPP-1 ECD [2]; [6]) [nM] | IC50 (ENPP-1 ECD [1]; [7]) [nM] | Ki (ENPP-1 ECD [2]; [8]) [nM] | Ki (ENPP-1 ECD [2]; [9]) [nM] | IC50 (ENPP-1 ECD [1]; [10]) [nM]
CS(=N)(=O)c1ccc(Oc2cnnc3ccccc23)cc1 (centres unmarked) [Compound 22, (4-(cinnolin-4-yloxy)phenyl)(imino)(methyl)-λ^6-sulfanone] |  | 1200 | > 300 | 310 | > 1000 |  |  | 
COc1ccc2c(OCc3ccc([S@](C)(=N)=O)cc3)ccnc2c1 [Compound 75b] |  |  |  |  | > 1000 | 3 to 300 | 98 | 
COc1ccc2c(OCc3ccc(S(C)(=N)=O)cc3Br)ccnc2c1 (centres unmarked) [Compound 137, (3-bromo-4-{[(7-methoxyquinolin-4-yl)oxy]methyl}phenyl)(imino)methyl-λ^6-sulfanone] | 10 to 1000 | 200 | 3 to 300 | 38 |  |  |  | 
COc1ccc2c(NCc3ccc(S(C)(=N)=O)cc3)ccnc2c1 (centres unmarked) [Compound 74, imino(4-(((7-methoxyquinolin-4-yl)amino)methyl)phenyl)(methyl)-λ^6-sulfanone] | 10 to 1000 | 11 | < 3 | 1.7 |  |  |  | 
COc1cccc2c(N3CCC(CCS(C)(=N)=O)CC3)ccnc12 (centres unmarked) [Compound 140, imino({2-[1-(8-methoxyquinolin-4-yl)piperidin-4-yl]ethyl})methyl-λ^6-sulfanone] | 10 to 1000 | 880 | 3 to 300 | 180 |  |  |  | 
CC[S@@](=N)(=O)c1ccc(Oc2ccnc3cc(OC)ccc23)cc1 [Compound 103a] |  |  |  |  | > 1000 | > 300 | 450 | 1600
COc1cc2nccc(Oc3ccc(S(C)(=N)=O)nc3)c2cc1OC (centres unmarked) [Compound 129, {5-[(6,7-dimethoxyquinolin-4-yl)oxy]pyridin-2-yl}(imino)methyl-λ^6-sulfanone] | 10 to 1000 | 260 | 3 to 300 | 39 |  |  |  | 
COc1ccc2c(N3CCC(CCS(C)(=N)=O)CC3)ncnc2c1OC (centres unmarked) [Compound 165, (2-(1-(7,8-dimethoxyquinazolin-4-yl)piperidin-4-yl)ethyl)(imino)(methyl)-l6-sulfanone] |  | > 30000 | > 300 | 1400 | > 1000 |  |  | 
COc1cc2ncnc(Oc3ccc(S(C)(=N)=O)cc3)c2cc1OC (centres unmarked) [Compound 18, (4-((6,7-dimethoxyquinazolin-4-yl)oxy)phenyl)(imino)(methyl)-λ^6-sulfanone] | 10 to 1000 | 180 | 3 to 300 | 24 |  |  |  | 
COc1ccc2c(Oc3ccc(CS(C)(=N)=O)cc3)ccnc2c1 (centres unmarked) [Compound 79, imino(4-((7-methoxyquinolin-4-yl)oxy)benzyl)(methyl)-λ^6-sulfanone] | 10 to 1000 | 740 | 3 to 300 | 220 |  |  |  | 
COc1ccc2c(-c3ccc(CS(C)(=N)=O)cc3)ccnc2c1 (centres unmarked) [Compound 88, imino(4-(7-methoxyquinolin-4-yl)benzyl)(methyl)-λ^6-sulfanone] | 10 to 1000 | 920 |  |  |  |  |  | 
COc1cccc2c(Oc3ccc(S(C)(=N)=O)cc3)c(C#N)cnc12 (centres unmarked) [Compound 58, 8-methoxy-4-(4-(S-methylsulfonimidoyl)phenoxy)quinoline-3-carbonitrile] | 10 to 1000 | 51 |  |  |  |  |  | 
CS(=N)(=O)c1ccc(Oc2ccnc3ccccc23)cc1 (centres unmarked) [Compound 125, imino(methyl)[4-(quinolin-4-yloxy)phenyl]-λ^6-sulfanone] | 10 to 1000 | 340 |  | 110 |  |  |  | 
COc1ccc2c(Oc3ccc(S(C)(=N)=O)cc3)cnnc2c1 (centres unmarked) [Compound 119, imino({4-[(7-methoxycinnolin-4-yl)oxy]phenyl})methyl-λ^6-sulfanone] | 10 to 1000 | 66 | 3 to 300 | 17 |  |  |  | 
COc1cc2nccc(Oc3ccc(S(C)(=N)=O)c(F)c3)c2cc1OC (centres unmarked) [Compound 115, {4-[(6,7-dimethoxyquinolin-4-yl)oxy]-2-fluorophenyl}(imino)methyl-λ^6-sulfanone] | 10 to 1000 | 85 | 3 to 300 | 13 |  |  |  | 
COc1ccc2c(-c3ccc(CCS(C)(=N)=O)cc3)ccnc2c1 (centres unmarked) [Compound 98, imino(4-(7-methoxyquinolin-4-yl)phenethyl)(methyl)-λ^6-sulfanone] | 10 to 1000 | 140 | 3 to 300 | 25 |  |  |  | 
COc1ccc2c(N3CCC4(CC3)CCN([S@@](C)(=N)=O)C4)ccnc2c1 [Compound 55b] |  |  |  |  | 10 to 1000 | 3 to 300 | 7.3 | 45
CS(=N)(=O)c1ccc(Oc2c(C#N)cnc3cc(F)ccc23)cc1 (centres unmarked) [Compound 131, 7-fluoro-4-{4-[imino(methyl)oxo-λ^6-sulfanyl]phenoxy}quinoline-3-carbonitrile] |  | > 30000 |  |  | > 1000 |  |  | 
COc1cccc2c(-c3ccc(CCS(C)(=N)=O)cc3)ncnc12 (centres unmarked) [Compound 154, imino({2-[4-(8-methoxyquinazolin-4-yl)phenyl]ethyl})methyl-λ^6-sulfanone] |  | 1800 |  |  | > 1000 |  |  | 
